Results reported in ChEMBL document CHEMBL4219140, “First discovery of a potential carbonate prodrug of NNRTI drug candidate RDEA427 with submicromolar inhibitory activity against HIV-1 K103N/Y181C double mutant strain” (Bioorg Med Chem Lett, 2018).
Activity calls are given as the source filed them. The rule behind the calls is not given here.

How the values were obtained:
[1] = test system: Human immunodeficiency virus 1; experiment: Antiviral activity against HIV1 3B expressing wild type reverse transcriptase infected in human MT4 cells assessed as protection against virus-induced cytopathic effect after 5 days by MTT assay; assay type: functional, organism-based; conditions: Human immunodeficiency virus 1, 3B, MT4, 120 h
[2] = test system: Human immunodeficiency virus 1; experiment: Antiviral activity against HIV1 RES056 expressing reverse transcriptase K103N/Y181C double mutant infected in human MT4 cells assessed as protection against virus-induced cytopathic effect after 5 days by MTT assay; assay type: functional, organism-based; conditions: Human immunodeficiency virus 1, RES056, MT4, 120 h
[3] = Cytotoxicity against human MT4 cells after 5 days by MTT assay; assay type: cell-based
[4] = Selectivity index, ratio of CC50 for human MT4 cells to EC50 for HIV1 3B expressing wild type reverse transcriptase infected in human MT4 cells; assay type: toxicity, cell-based; conditions: read-out: Ratio CC50/EC50
[5] = Selectivity index, ratio of CC50 for human MT4 cells to EC50 for HIV1 RES056 expressing reverse transcriptase K103N/Y181C double mutant; assay type: toxicity; conditions: read-out: Ratio CC50/EC50
[6] = test system: Human immunodeficiency virus 1; experiment: Resistance index, ratio of EC50 for HIV1 RES056 harboring K103N/Y181C double mutant infected in human MT4 cells to EC50 for wild-type HIV1 3B infected in human MT4 cells; assay type: functional
[7] = target: Human immunodeficiency virus type 1 reverse transcriptase (Human immunodeficiency virus 1, UniProt Q72547); experiment: Inhibition of recombinant wild-type HIV1 reverse transcriptase p66/p51 RNA-dependent DNA polymerase activity assessed as reduction in biotin-dUTP incorporation using poly(rA)/oligo(dT)16 as template/primer after 40 mins by PicoGreen dye based spectrofluorometric analysis
[8] = Prodrug conversion in human plasma assessed as RDEA427 formation by measuring remaining prodrug levels at 100 uM measured after 10 mins by LC-MS/MS analysis; assay type: ADME, cell-free
[9] = Prodrug conversion in human plasma assessed as RDEA427 formation by measuring remaining prodrug levels at 100 uM measured after 30 mins by LC-MS/MS analysis; assay type: ADME, cell-free; conditions: 0.5 h
[10] = Prodrug conversion in human plasma assessed as RDEA427 formation by measuring remaining prodrug levels at 100 uM measured after 60 mins by LC-MS/MS analysis; assay type: ADME, cell-free; conditions: 1 h
[11] = Prodrug conversion in human plasma assessed as RDEA427 formation by measuring remaining prodrug levels at 100 uM measured after 120 mins by LC-MS/MS analysis; assay type: ADME, cell-free; conditions: 2 h
[12] = Prodrug conversion in human plasma assessed as RDEA427 formation at 100 uM by LC-MS/MS analysis; assay type: ADME, cell-free; conditions: TDE = time-dependent effect
[13] = test system: Human immunodeficiency virus 2; experiment: Antiviral activity against HIV2 ROD infected in human MT4 cells after 5 days by MTT assay; assay type: functional, organism-based; conditions: ISOLATE ROD
[14] = Metabolic stability in human plasma assessed as parent compound remaining at 100 uM after 30 mins by LC-MS/MS analysis; assay type: ADME, cell-free; conditions: read-out: Stability
[15] = Metabolic stability in human plasma assessed as parent compound remaining at 100 uM after 10 mins by LC-MS/MS analysis; assay type: ADME, cell-free; conditions: read-out: Stability
[16] = Metabolic stability in human plasma assessed as parent compound remaining at 100 uM after 60 mins by LC-MS/MS analysis; assay type: ADME, cell-free; conditions: read-out: Stability
[17] = Metabolic stability in human plasma assessed as parent compound remaining at 100 uM after 120 mins by LC-MS/MS analysis; assay type: ADME, cell-free; conditions: read-out: Stability

Structure (SMILES): Cc1cc(C#N)cc(C)c1Oc1nc(Nc2ccc(C#N)cc2)nc(N)c1Br [ETRAVIRINE]
- EC50 [1]: 3.9 nM
- EC50 [2]: 47 nM
- CC50 at 120 h [3]: > 4590 nM
- selectivity ratio [4]: > 1170
- selectivity ratio [5]: > 97
- Ratio EC50 [6]: 12

Structure (SMILES): Cc1cc(C#N)cc(C)c1Oc1nc(Nc2ccc(C#N)cc2)nc2c1ccn2COC(=O)OC(C)C
- EC50 [1]: 5.5 nM
- EC50 [2]: 150 nM
- CC50 at 120 h [3]: 1050 nM
- selectivity ratio [4]: 190
- selectivity ratio [5]: 7
- Ratio EC50 [6]: 27.3
- IC50 [7]: 264 nM
- Stability [8]: 87.8%
- Stability [9]: 73.9%
- Stability [10]: 53.3%
- Stability [11]: 56.4%
- Drug metabolism [12]: Tde
- Activity [13]: inactive

Structure (SMILES): O=C1Nc2ccc(Cl)cc2[C@@](C#CC2CC2)(C(F)(F)F)O1 [EFAVIRENZ]
- EC50 [1]: 4.8 nM
- EC50 [2]: 140 nM
- CC50 at 120 h [3]: > 6340 nM
- selectivity ratio [4]: > 1320
- selectivity ratio [5]: > 44
- Ratio EC50 [6]: 30

Structure (SMILES): CC(C)[N+](C)(CCOC(=O)C1c2ccccc2Oc2ccccc21)C(C)C [PROPANTHELINE]
- remaining at 0.5 h, 100 µM [14]: 19.4%
- remaining at 10 min, 100 µM [15]: 54.8%
- remaining at 1 h, 100 µM [16]: 5.1%
- remaining at 2 h, 100 µM [17]: 0.5%

Structure (SMILES): Cc1ccnc2c1NC(=O)c1cccnc1N2C1CC1 [NEVIRAPINE]
- EC50 [1]: 440 nM
- EC50 [2]: > 15000 nM
- CC50 at 120 h [3]: > 15000 nM
- selectivity ratio [4]: > 34
- selectivity ratio [5]: 1

Structure (SMILES): Cc1cc(C#N)cc(C)c1Oc1nc(Nc2ccc(C#N)cc2)nc2[nH]ccc12
- EC50 [1]: 2.9 nM
- EC50 [2]: 56 nM
- CC50 at 120 h [3]: ≥ 1240 nM
- selectivity ratio [4]: ≥ 425
- selectivity ratio [5]: ≥ 22
- Ratio EC50 [6]: 19.1
- IC50 [7]: 16 nM
